Measured values: patent US9926293B2, “Multivalent RAS binding compounds” (THE TRUSTEES OF COLUMBIA UNIVERSITY IN THE CITY OF NEW YORK, priority 2014, dated 2018)

Key:
GTP-loaded KRAS G12D = biological target: T1, GTP-loaded KRAS G12D (Homo sapiens, UniProt P01116, G12D); test: Microscale thermophoresis, GTP-loaded KRAS G12D labeled with NT-647-maleimide; assay type: binding; details: read-out: dissociation constant KD
T1 construct: made in house; host or cells: Escherichia coli BL21-Gold (DE3)
Protocol: Microscale Thermophoresis
KRAS^G12D (250 μM) in 25 mM HEPES, 100 mM sodium chloride, 2 mM TCEP with 20 mM EDTA and 1 mM GppNHp was shaken at 220 rpm at 30° C. to remove the endogenous nucleotide, The solution was placed on ice for 2 minutes prior to the addition of 65 mM MgCl2. […] The protein/dye mixture was rotated at 4° C. for 30 minutes, before being separated from the excess dye and buffer exchanged into 25 mM Tris, 100 mM sodium chloride, 2 mM TCEP, and 5 mM MgCl2 via a nap-5 column. The test compounds were arrayed across a 16-point dilution series consisting of 1.5% DMSO with 25 mM Tris, 100 mM NaCl, 2 mM TCEP, 5 mM MgCl2 and 0.05% tween-20. Thermophoretic movement of the fluorescently labeled protein with the inhibitors was performed using a Monolith NT.115 (Nanotemper Technologies). RALA and RHOA were purchased commercially from Abcam (RALA CN:ab102555, RHOA CN:ab101594).
(§1) A set of 45 of the closest matches (ranging from 0.85-0.97 Tanimoto coefficient) were synthesized (based on Scheme 2 with appropriate modifications) and tested for their ability to bind to KRAS^G12D by differential scanning fluorimetry.

KRAS^G12D D38A = biological target: T2, KRAS^G12D D38A (Homo sapiens, UniProt P01116, D38A/G12D); test: Microscale thermophoresis on binding-site mutant KRAS^G12D D38A
T2 construct: His6 (N); made in house
Protocol: (§2) Mutagenesis of the KRAS^G12D plasmid was performed using a QuikChange XL site-directed mutagenesis kit from Agilent technologies, according to the manufacturer's protocol. Primers were designed using the Agilent QuikChange Primer Design application and purchased from Integrated DNA Technologies. KRAS^G12D D38A forward primer 5′ ATATGATCCAACAATAGAGGCTTCCTACAGGAAGCAAGTAG 3′ (SEQ ID NO: 66), KRAS^G12D D38A reverse primer 5′ CTACTTGCTTCCTGTAGGAAGCCTCTATTGTTGGATCATAT 3′ (SEQ ID NO: 67), KRAS^G12D I36N forward primer 5′ CATTTTGTGGACGAATATGATCCAACAAATGAGGATTCCTACAGG 3′ (SEQ ID NO: 68), KRAS^G12D I36N reverse primer 5′ CCTGTAGGAATCCTCATTTGTTGGATCATATTCGTCCACAAAATG 3′ (SEQ ID NO: 69). DNA sequencing was performed to confirm the correct amino acid sequence of the construct (GeneWiz, Inc.).
(§3) KRAS^G12D (250 μM) in 25 mM HEPES, 100 mM sodium chloride, 2 mM TCEP with 20 mM EDTA and 1 mM GppNHp was shaken at 220 rpm at 30° C. to remove the endogenous nucleotide, The solution was placed on ice for 2 minutes prior to the addition of 65 mM MgCl2. After an additional 10 minutes incubation on ice, 200 uL of a 10 uM solution of KRAS^G12D was combined with 200 uL of a 20 uM solution of NT-647-NHS-ester dye (from a 652.4 μM stock). The protein/dye mixture was rotated at 4° C. for 30 minutes, before being separated from the excess dye and buffer exchanged into 25 mM Tris, 100 mM sodium chloride, 2 mM TCEP, and 5 mM MgCl2 via a nap-5 column. The test compounds were arrayed across a 16-point dilution series consisting of 1.5% DMSO with 25 mM Tris, 100 mM NaCl, 2 mM TCEP, 5 mM MgCl2 and 0.05% tween-20. Thermophoretic movement of the fluorescently labeled protein with the inhibitors was performed using a Monolith NT.115 (Nanotemper Technologies). RALA and RHOA were purchased commercially from Abcam (RALA CN:ab102555, RHOA CN:ab101594).
as §1

KRAS^G12D I36N = biological target: T3, KRAS^G12D I36N (Homo sapiens, UniProt P01116, G12D/I36N); test: Microscale thermophoresis on binding-site mutant KRAS^G12D I36N; details: MST, 31MEW79 experiment of b434
T3 construct: His6 (N); made in house
Protocol: as §2
as §3, with “CN:ab101594). […]” for “CN:ab101594).”

GppNHp-bound KRAS^G12D = biological target: T4, GppNHp-bound KRAS^G12D (Homo sapiens, UniProt P01116, G12D); test: Binding to KRAS and measurement of dissociation constants (FIG. 4B-4C), GppNHp-bound; details: read-out: dissociation constant KD
T4 construct: made in house; host or cells: Escherichia coli BL21-Gold (DE3)

GDP-bound KRAS^G12D = biological target: T5, GDP-bound KRAS^G12D (Homo sapiens, UniProt P01116, G12D); test: Binding to KRAS and measurement of dissociation constants (FIG. 4B-4C), GDP-bound; details: read-out: dissociation constant KD
T5 construct: made in house; host or cells: Escherichia coli BL21-Gold (DE3)

KRAS^G12D⋅BODIPY-GTP = biological target: T6, KRAS^G12D⋅BODIPY-GTP (Homo sapiens, UniProt P01116, G12D); test: Nucleotide displacement assay with BODIPY-GTP (fluorescence polarization); assay type: binding; details: 2.5 μM KRAS^G12D⋅BODIPY-GTP, 12 hours
T6 construct: made in house; host or cells: Escherichia coli BL21-Gold (DE3)
Protocol: Nucleotide Displacement Assay
To investigate whether compounds were binding to the same site as GTP, a fluorescent polarization assay was implemented using fluorescently-labeled BODIPY-GTP as a probe. When BODIPY-GTP is free in solution, it has a low polarization. However, when BODIPY-GTP is bound to K-Ras protein, the polarization intensity is high. K-Ras G12D bound to BODIPY-GTP was incubated with different concentrations of ligand or unlabeled GTP or GDP in buffer containing 25 mM Tris-HCl, pH 8, 100 mM NaCl, 5 mM MgCl2, 1 mM EDTA, and 1 mM TCEP. The final concentration of K-Ras G12D bound to BODIPY-GTP in each well was 2.5 μM. The samples were incubated at 25° C. for 12 hours with gentle shaking to allow for the slow intrinsic nucleotide release reaction to take place. The change in fluorescence was measured on a Victor3 plate reader (Perkin Elmer) in 384-well black low-volume plates (Corning, Inc.). The BODIPY-GTP fluorophore was excited at 485 nm and emission was monitored at 535 nm.

[1] = biological target: T7, GTP-loaded KRAS^G12D / CRAF RBD interaction (Homo sapiens, UniProt P01116, G12D); test: In vitro RAS pulldown with CRAF RBD; assay type: biochemical; details: in vitro pull-down
T7 construct: made in house; host or cells: Escherichia coli BL21-Gold (DE3)
Protocol: A 20 μM solution of KRAS^G12D in 50 mM HEPES, 200 mM sodium chloride, 2 mM TCEP with 1 mM EDTA and 1 mM GTP was gently rotated at 25° C. to remove the endogenous nucleotide. Magnesium chloride was then added to 5 mM and the resulting solution was rotated at 4° C. for 4 hours. The GTP-loaded KRAS^G12D was then diluted to 20 nM and incubated with the inhibitors and 5 μL of CRAF-RBD agarose beads (Millipore), 10 μL of RAF1-RBD agarose beads (EMD Millipore, CN: 14-278), or 100 nM RALGDS (Abcam, CN: ab132590) with 20 μL of glutathione beads for 2 hours. The beads were separated from the lysate via a 0.1 μm filter spin cup and centrifuging at 14,000-15,000 rpm. They were then washed twice with PBS before the addition of 1×SDS. The quantity of RAS in the samples was then analyzed using the previously described Western blotting procedure.
as §1

Kd (GTP-loaded KRAS G12D): 33 µM
loss in affinity (KRAS^G12D D38A; KRAS^G12D D38A and I36N vs KRAS^G12D): 1.5 to 3.0 fold
Kd (KRAS^G12D D38A; MST, 31MEW79 experiment of b434): 83 µM
Kd (KRAS^G12D I36N): 47 µM
Kd (GppNHp-bound KRAS^G12D): 3800 µM
Kd (GDP-bound KRAS^G12D): 7100 µM
displacement of BODIPY-GTP (KRAS^G12D⋅BODIPY-GTP): No displacement
CRAF-bound KRAS^G12D [1]: dose-dependent decrease
Structure (SMILES): NCCC[C@@H](NC(=O)CN1CCCNCC1)C(=O)NC1Cc2ccccc2C1 [Compound 31MEW79, (R)-2-(2-(1,4-diazepan-1-yl)ethanamido)-5-amino-N-(2,3-dihydro-1H-inden-2-yl)pentanamide]
